Consider two compounds from patent US20120071628A1, “TOPICAL THERAPEUTIC AGENT FOR OPHTHALMIC DISEASES COMPRISING COMPOUND CAPABLE OF BINDING SPECIFICALLY TO DNA SEQUENCE” (NIHON UNIVERSITY, priority 2009, published 2012).

Data set [1] deals with nucleus of cells in the cornea. In words: Distribution of FITC-labeled polyamide in the cornea of alkali injury model rats. Format: in vivo, rat. As to conditions: 1 hour after administration, 1 μmol/L, 5 μl instilled. As for the experimental part:
The synthesized FITC polyamide was dissolved in 0.1% acetic acid solution, the concentration was adjusted to 1 μmol/L, 5 μl of the solution was dropped on the central part of the cornea of 8 alkali injury model rats at 1 hour after induction of a trauma. Two animals each were euthanized at 1 hour and on 1, 4, and 7 days after instillation of the FITC polyamide. The eyeball was isolated, embedded in the OCT compound (Miles, Elkhart, Ind., USA) in a plastic container for a frozen section sample, frozen with liquid nitrogen, and stored in an ultra-low temperature refrigerator at −80° C. The sample was thinly sliced into a section of 5 μm and observed under a fluorescence microscope (Olympus Corporation).

Data set [2] deals with rTGF-β1 promoter. Put plainly: Luciferase reporter plasmid assay of rTGF-β1 promoter expression induced by PMA. The data set is classed as cell-based, rat. As to conditions: luciferase reporter plasmid with rTGF-β1 promoter region. An excerpt: The reporter gene expression induced by adding PMA was inhibited by adding GBP1201 and GBP1203 but not by the mismatch polyamide.
On the technique in general: A reporter such as luciferase makes a cellular process visible.

Data set [3] deals with alkali burn rat model (cornea). Put plainly: Corneal opacity, ulceration and corneal defect in rats with alkali burn. The data set is classed as in vivo. Conditions: 1 μmol/L, 5 μl instilled once daily for 1 week, versus 0.1% aqueous acetic acid control. As for the experimental part:
8-week-old male Wister rats were prepared and anesthetized with diethyl ether. Then, 5 μl of 0.5 N sodium hydroxide solution was administered […] to adult Wister rats by instilling the central part of the cornea of both eyes or one eye by a common method according to Saika et al. (Am J. Patho., 2005). At 10 seconds after instillation, the alkali liquid was washed off from the cornea surface with 10 ml of phosphate buffer to prepare an alkali burn rat model.
At 1 hour after a trauma due an alkali burn was induced (9.00 am), and 1 μmol/L rTGF-β (GBP1201) PIP compound and 1 μmol/L of a mixture of rMMP9AP1 and rMMP9NFkB in 1:1 (hereinafter, also referred to as rMMP9PIP) dissolved in 5 μl of 0.1% acetic acid hydrate were administered to the rat right eye by dropping in the central part of the cornea at 9.00 am once daily every day for 1 week. As a control, 0.1% aqueous acetic acid solution was administered to the left eye in the same manner as described above. The same experiment was performed in 6 rats. The reason why 0.1% aqueous acetic acid solution was used was that the PIP compound of the present invention was dissolved in this aqueous solution. Furthermore, to prevent the occurrence of an infection, antibiotic eye ointment Tarivid Ophthalmic Ointment 0.3% (Santen Pharmaceutical Co., Ltd.) was administered at 5.00 pm every day. Furthermore, the drug was administered to 2 rats in which an alkali burn was not induced as controls. Rats were observed every day at the time of instillation and application of an eye ointment, and the cornea was observed and photographed every evening. […] By utilizing this property, the corneal injury was evaluated according to the cornea fluorescein test using a FLUORES test paper (Showa Yakuhin Kako Co., Ltd.) that can test the corneal condition.
The cornea was observed until complete reepithelialization was observed. When the fluorescence staining of the cornea was not observed, complete reepithelialization was defined.
Transparency of the cornea was evaluated as follows. […]

In data set [4] the test system is double-stranded oligo DNA containing the AP-1 binding site that corresponds to the TGF-β1 promoter. In words: Gel shift assay of PIP binding to target DNA. On the set-up: species or system rat. Here is the method:
For the gel shift assay, a fluorescence-labeled match oligo DNA containing the AP-1 binding site that corresponds to the TGF-β1 promoter was synthesized. Sense and antisense oligo DNA suitable for the test were annealed to prepare a double-stranded oligo DNA. 1 μM DNA was incubated with 50 μM PIP compound at 37° C. for 1 hour, separated by electrophoresis using 20% polyacrylamide gel, and visualized using a fluorescence image analyzer LAS-3000 (Fuji Film, Tokyo, Japan).

The subject of data set [5] is TGF-β1 protein. In words: Immunohistochemistry test of rat eyes after corneal injury. The data set is classed as in vivo. As to conditions: day 1 after alkali injury. Here is the method: At 1 hour and on 1, 4, and 7 days after induction of a corneal injury in rats, the eyeball was isolated and embedded in the OCT compound (Miles, Elkhart, Ind., USA.). The frozen section was sliced into sections having a thickness of 5 μm, and histological and immunohistological analyses were performed. Using rabbit-anti-human Tgf-β1 polyclonal antibody (Yanaihira, Japan, catalog No. Y241) as a primary antibody, the sample was diluted 1000-fold before use. 4 nontrauma corneas as normal controls were used to compare rTGF-β (GBP1201) PIP-treated eyes and mock-treated eyes. To determine the specificity of the primary antibody, a negative control was also included.

Data set [6] concerns biotin-labeled double-stranded oligo DNA (target DNA, rat TGF-β1 promoter). Put plainly: Biacore assay of binding affinity for target DNA. Conditions: surface plasmon resonance. From the text: Biacore assay can measure binding affinity of rTGF-β (GBP1201) PIP for a target DNA in real time.
Biotin-labeled oligo DNA were annealed to form a double strand, and the double strand was immobilized on a sensor chip SA (Biacore, Uppsala, Sweden) on which streptavidin was immobilized beforehand.
Dynamics of interactions of rTGF-β (GBP1201) PIP, mismatch (FIG. 41 [a]) and biotin-labeled oligo DNA were investigated using Biacore 2000 System (Biacore, Uppsala, Sweden). Data was processed according to the protocol recommended by Biacore2000.

As to `CN(C)CCCNC(=O)CCNC(=O)c1nc(NC(=O)c2nc(NC(=O)CCNC(=O)c3cc(NC(=O)c4cc(NC(=O)c5nc(NC(=O)CCCNC(=O)c6cc(NC(=O)c7cc(NC(=O)c8nc(NC(=O)CCNC(=O)c9cc(NC(=O)c%10cc(NC(=O)CCNC(=S)Nc%11ccc%12c(c%11)C(=O)OC%12%11c%12ccc(O)cc%12Oc%12cc(O)ccc%12%11)cn%10C)cn9C)cn8C)cn7C)cn6C)cn5C)cn4C)cn3C)cn2C)cn1C` [rTGF-β (GBP1201) FITC], the “FITC fluorescence in the cornea” value in data set [1] was “green FITC fluorescence is observed in the corneal epithelium and in the nucleus of interstitial cells in the cornea”.
For orientation: Kd means the equilibrium constant for the complex coming apart. High values mean lower affinity, low ones higher affinity. With `CC(=O)Nc1cc(C(=O)Nc2cc(C(=O)NCCC(=O)Nc3cn(C)c(C(=O)Nc4cc(C(=O)Nc5cc(C(=O)NCCCC(=O)Nc6cn(C)c(C(=O)Nc7cc(C(=O)Nc8cc(C(=O)NCCC(=O)Nc9cn(C)c(C(=O)Nc%10cn(C)c(C(=O)NCCC(=O)NCCCN(C)C)n%10)n9)n(C)c8)n(C)c7)n6)n(C)c5)n(C)c4)n3)n(C)c2)n(C)c1` [rTGF-β (GBP1201)], the “reporter gene expression induced by adding PMA” value in data set [2] is given as “inhibited”. Besides, the “healing of corneal opacity and ulceration” value in data set [3] is given as “significantly better than the control”. The “healing of corneal defect (severity of corneal defect)” value in data set [3] (listed as TGF-β (GBP1201) PIP) was “significantly earlier (approximately twice as fast) than the control”; in data set [3] (listed as rTGF-β (GBP1201) PIP compound), “significantly better than the control”. Besides, the “binding to the target DNA (gel shift)” value in data set [4] (1 μM DNA, 50 μM PIP compound, 37° C., 1 hour) was “bound specifically to the target DNA”. In addition, the “binding to the mismatch polyamide (gel shift (so in the source))” value in data set [4] (gel shift assay) was “did not bind to the mismatch polyamide”. Moreover, the “TGF-β1 immunohistology versus controls” value in data set [5] is on record as “No immunohistological difference”. Also, the “binding affinity for target DNA relative to the mismatch polyamide” value in data set [6] stood at 149 times. The dissociation constant (Kd) in data set [6] (target DNA, 0-300 nM) came to 5.12 nM.
